22 molecules from ChEMBL document CHEMBL1134879, “3D-QSAR studies on 4-hydroxyphenylpyruvate dioxygenase inhibitors by comparative molecular field analysis (CoMFA)” (Bioorg Med Chem Lett, 2002) can be followed below.

A word on the pIC50: it is the negative decadic logarithm of the IC50, by convention in mol/L. A lower pIC50 goes with a large IC50.

The target of assay [1] is T1, 4-hydroxyphenylpyruvate dioxygenase (Sus scrofa, UniProt Q02110). Kind of assay: Concentration required to achieve 50% inhibition against 4-Hydroxyphenylpyruvate dioxygenase (HPPD) from pig liver.
T1 sequence (Q02110 whole entry): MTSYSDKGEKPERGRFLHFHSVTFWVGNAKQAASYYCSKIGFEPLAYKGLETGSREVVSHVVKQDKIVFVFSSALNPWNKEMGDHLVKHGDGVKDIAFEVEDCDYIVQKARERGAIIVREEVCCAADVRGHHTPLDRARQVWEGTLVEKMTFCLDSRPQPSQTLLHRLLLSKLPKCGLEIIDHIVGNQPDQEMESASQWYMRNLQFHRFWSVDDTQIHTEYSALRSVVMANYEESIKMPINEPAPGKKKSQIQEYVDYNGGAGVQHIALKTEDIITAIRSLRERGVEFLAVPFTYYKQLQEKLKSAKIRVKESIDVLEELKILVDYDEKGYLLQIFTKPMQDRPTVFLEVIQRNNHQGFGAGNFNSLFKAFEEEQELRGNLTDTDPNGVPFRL
The target of assay [2] is T1, 4-hydroxyphenylpyruvate dioxygenase. Kind of assay: Concentration required to achieve 50% inhibition against 4-Hydroxyphenylpyruvate dioxygenase (HPPD) from pig liver; (observed value).
Assay [3] has the same target. Kind of assay: Concentration required to achieve 50% inhibition against 4-hydroxyphenylpyruvate dioxygenase from pig liver; (observed value).
Assay [4] shares this target. As to the kind of experiment: Concentration required to achieve 50% inhibition against 4-hydroxyphenylpyruvate dioxygenase from pig liver.

pIC50: −log10 of the molar value.

With `CCOC(=O)C1CC(=O)C=C(OC(=O)C2CC2)C1` (stereo not drawn), the negative-log IC50 (pIC50) in assay [1] and in assay [2] was 7.05 in each case.

Consider `O=C1CCCC(=O)C1=C(O)c1ccccc1Br`, for which the pIC50 in assay [1] and in assay [2] was 6.25 throughout. In the case of `COC1=CC(=O)C(OC(=O)C2CC2)=CC1=O`, the pIC50 in assay [1] and in assay [2] was 4.52 in each case. Take `CCOC(=O)C1CC(=O)C(C(=O)C2CC2)=C(OC(=O)C2CC2)C1` (stereo not drawn): the pIC50 in assay [1] and in assay [2] was 7.40 each time. In the case of `O=C(Oc1cc(=O)oc2ccccc12)C1CC1`, the pIC50 in assay [1] and in assay [2] was 6.96 in each case. For the molecule `CCC(=O)C1=C(O)CCCC1=O`, the pIC50 in assay [3] and in assay [4] was 4.75 throughout. On to `O=C1CCCC(OC(=O)C2CC2)=C1Cl`, for which the pIC50 in assay [1] and in assay [2] was 7.70 each time. For the molecule `CC1(C)CC(=O)C=C(OC(=O)C2CC2)C1`, the pIC50 in assay [1] and in assay [2] was 6.48 in each case. With `Cc1ccccc1C(O)=C1C(=O)CCCC1=O`, the pIC50 in assay [1] and in assay [2] was 5.43 each time. Consider `O=C1CCCC(=O)C1=C(O)c1ccccc1I`, for which the negative-log IC50 (pIC50) in assay [1] and in assay [2] was 6.12 each time. As to `O=C1C=C(OC(=O)C2CC2)CC1`, the negative logarithm of the IC50 (pIC50) in assay [1] and in assay [2] was 7.15 each time. With `O=C1CCCC(=O)C1=C(O)c1ccccc1Cl`, the pIC50 in assay [1] and in assay [2] was 6.30 in each case. With `CC(C)C(=O)C1=C(O)CCCC1=O`, the pIC50 in assay [3] and in assay [4] was 4.03 in each case.

On to `O=C1CCCC(O)=C1C(=O)C1CCCCC1`, for which the pIC50 in assay [3] and in assay [4] was 3.44 each time.

Turning to `O=C(Oc1cccc(O)c1)C1CC1`, the negative-log IC50 (pIC50) in assay [1] and in assay [2] was 6.60 each time. With `CC(=O)C1=C(O)CCCC1=O`, the pIC50 in assay [3] and in assay [4] was 4.95 throughout. Molecule `CS(=O)(=O)c1ccc(C(O)=C2C(=O)CCCC2=O)c(Cl)c1` had a pIC50 in assay [1] of 7.30.

On to `O=C1CCCC(O)=C1C(=O)C1CC1`, for which the pIC50 in assay [3] and in assay [4] was 5.22 in each case.

Consider `COc1ccccc1C(O)=C1C(=O)CCCC1=O`, for which the pIC50 in assay [1] and in assay [2] was 4.93 in each case. As for `O=C1CCCC(=O)C1=C(O)c1ccccc1C(F)(F)F`, the pIC50 in assay [1] and in assay [2] was 6.60 throughout. As for `O=C1CCCC(OC(=O)C2CC2)=C1Br`, the pIC50 in assay [1] and in assay [2] was 7.52 each time.

In the case of `O=C1CCCC(=O)C1=C(O)c1ccccc1`, the negative-log IC50 (pIC50) in assay [1] and in assay [2] was 4.95 in each case.
